Active and inactive are the calls of the source.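 Rule for the calls: active = signal falls with dose and the fitted half-maximal concentration is at or below twice the top valid tested dose; inconclusive = flat curve with 30 to 70% inhibition, or poor fit; inactive = wrong direction, flat within 30%, or potency beyond limit.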
What follows are compounds tested against Golgi-associated PDZ and coiled-coil motif-containing protein (Homo sapiens) (UniProt Q9HD26) (assay: blockers of CAL PDZ ligand groove binding – biochemical, fluorescence polarization, untagged CAL PDZ, cherry-pick, dose response (AID 602267)). Conditions: purified CAL PDZ, TMR-peptide fluorescence polarization, 1 h.

SMILES | AC50
CCOc1ccc(S(=O)(=O)Nc2cc(SCC(=O)O)c(O)c3ccccc23)cc1 | 39 µM
CCOc1ccc2c(c1)C(NC(C)=O)C(=O)N2CCN1CCOCC1 (stereo unspecified) | > 100 µM (inactive)
O=C(O)CSc1cc(NS(=O)(=O)c2ccc(Cl)cc2)c2ccccc2c1O | 32.9 µM

Same assay, conditions: purified CAL PDZ, TMR-peptide fluorescence polarization, 1 h; at 16 µM (top of the series)

SMILES | activity change, negative = inhibition
CCOC(=O)C1(Cc2cccc(Cl)c2)CCCN(C(=O)c2cccc(C)n2)C1 (stereo unspecified) | inactive
COc1cc(C2NC(=O)NC(C)=C2C(=O)OC2CCCCC2)cc(Br)c1O (stereo unspecified) | inactive

Same assay, conditions: purified CAL PDZ, TMR-peptide fluorescence polarization, 1 h; at 50 µM (top of the series)

SMILES | activity change, negative = inhibition
c1ccc(C(c2ccccc2)c2cccnc2)cc1 | inactive
O=C(CCc1nc(-c2ccc(Cl)cc2)no1)NC1CCCCC1 | inactive
CNC(=O)c1nnn(Cc2ccccc2)c1NC(C)=O | inactive
COC(=O)N/N=C/c1sc(N2CCCCC2)nc1-c1cccs1 | inactive
COc1ccc(Br)c(C(=O)NC2CCCC2)c1 | inactive
COc1cccc(CN2CCN(C3CSCCSC3)CC2CCO)c1 (stereo unspecified) | inactive
Cc1cc(SCC(=O)OCC(=O)c2c(N)n(C)c(=O)n(C)c2=O)c(C)cc1Br | inactive
Cn1c(=O)c2c(nc(-c3ccc(N(CCCl)CCCl)cc3)n2C)n(C)c1=O | inactive
Cc1ccc(C(=O)NC(=S)N2CCN(c3cc(C)ccc3C)CC2)cc1 | inactive
Cc1ccnc2nc(C(=O)OCCOc3ccc(F)cc3)nn12 | inactive
O=S(=O)(c1cccc2ccccc12)N1CCCCC1 | inactive
CC1CCCN(C(=O)Cc2cccc3ccccc23)C1 (stereo unspecified) | inactive
Cc1ccc(NC(=O)CN(C)C(=S)NC2CC2)cc1 | inactive
O=C(NC(=S)NCCCN1CCOCC1)c1ccc(Br)cc1 | inactive
COCC(=O)NNC(=O)c1ccc(OC)cc1 | inactive
COc1ccc(Cl)cc1C(=O)Nc1ccc2c(c1)OCCO2 | inactive
Cc1ccc(-c2nnn(CC(=O)N(CCN3CCOCC3)C(C(=O)NC(C)(C)C)c3ccc(C)o3)n2)cc1 (stereo unspecified) | inactive
CC(C)OC(=O)C1CC(C)(O)C(=O)C(C(=O)OC(C)C)C1c1ccc([N+](=O)[O-])cc1 (stereo unspecified) | inactive
COc1ccc(CN(C)C(C)C(=O)NC2CCCc3ccccc32)cc1 (stereo unspecified) | inactive
NS(=O)(=O)c1ccc(N2N=C(c3ccccc3)CC2c2ccccc2)cc1 (stereo unspecified) | inactive
Cc1cccc(NS(=O)(=O)Cc2ccccc2)c1C | inactive
CCc1ccc(C2CC(=O)N(c3cccc(F)c3)C3=C2C(=O)OC3)cc1 (stereo unspecified) | inactive
CC1CCC(NC(=O)c2ccc3c(c2)S(=O)(=O)c2ccccc2C3=O)CC1 (stereo unspecified) | inactive

SMILES | activity change, negative = inhibition
COC(=O)CN1C(=O)C(O)=C(C(C)=O)C1c1ccc([N+](=O)[O-])cc1 (stereo unspecified) | inactive
COc1ccc(/C=N/NC(=O)c2cccc(C(F)(F)F)c2)cc1 | inactive
C/C(=N\NC(=O)c1cc(-c2ccc(C)s2)nc2ccccc12)c1cccnc1 | inactive
CCC(C(=O)NN1C(=O)c2ccccc2C1=O)c1ccccc1 (stereo unspecified) | inactive
C/C(=N\NC(=O)C(O)c1ccccc1)c1ccc(Cl)s1 (stereo unspecified) | inactive
Cc1cc(=O)n2c3ccccc3n(CC(O)CN3CCN(CCO)CC3)c2c1C#N (stereo unspecified) | inactive
COc1cc(N(C)C)ccc1C=c1c2ccccc2n2c1cc(-c1ccccc1)[n+]2C | inactive
CC(=O)N1CCN(c2ccc(NC(=O)C(c3ccccc3)c3ccccc3)cc2)CC1 | inactive
Oc1ccc(/C=N\Nc2nncc(-c3ccccc3)n2)cc1 | inactive
CCOc1ccc(N(CC(=O)N2CCN(Cc3ccccc3)CC2)S(C)(=O)=O)cc1 | inactive
CCNC(=S)N1CCc2cc(OC)c(OC)cc2C1COc1ccc(OC)cc1 (stereo unspecified) | inactive
O=C1CN=C(c2ccccc2)c2oc3ccc(Br)cc3c2N1 | inactive
CC1=NN(C(N)=S)C(=O)C1N=Nc1ccc(Cl)cc1 (stereo unspecified) | inactive
COc1cc(OC)cc(C(=O)N[C@H](C(=O)Nc2nc3ccc(S(C)(=O)=O)cc3s2)C(C)C)c1 | inactive
CCCn1cnc2c(SCCc3ccccc3)nc(N)nc21 | inactive
CCCNC(=O)C(=O)NCC1CCCN1CC (stereo unspecified) | inactive
CN1CCN(c2ccccc2NC(=O)c2ccc(N3CCCC3)c([N+](=O)[O-])c2)CC1 | inactive
CN(c1nc(-c2ccc(Br)cc2)cs1)C1CCS(=O)(=O)C1 (stereo unspecified) | inactive
CC(c1ccccc1)N1CCN(C(=O)CCl)CC1 (stereo unspecified) | inactive
c1ccc2[nH]c(CCNC3CCCCC3)nc2c1 | inactive
CSC1=NP(=S)(SC)N2CCCC2=C1C#N (stereo unspecified) | inactive
S=C(NCCc1ccccc1)NC1CCC(NC(=S)NCCc2ccccc2)CC1 (stereo unspecified) | inactive
O=C(COc1ccc(Cl)cc1Cl)Nc1nnc(C2=COCCO2)o1 | inactive

SMILES | activity change, negative = inhibition
O=C(Nc1ccc(Cl)cc1)c1ccc(CN2CCc3ccccc3C2)cc1 | inactive
O=C(NCc1ccccc1)C1CCCN(c2nc3ccsc3c(=O)s2)C1 (stereo unspecified) | inactive
O=C(NC12CC3CC(CC(C3)C1)C2)c1ccco1 | inactive
Cc1cc(/C=C2\SC(=O)N(C)C2=O)c(C)n1-c1ccc(O)cc1 | inactive
O=C(c1cccs1)N1CCN(C(=O)N2CCOCC2)CC1 | inactive
O=C(NCC(=O)N1CCC(N2CCCCC2)CC1)C1CCCCC1 | inactive
c1cc(-c2nnc(-c3ccncc3)o2)ccn1 | inactive
CCOC(=O)c1c(CN2CCOCC2)oc2ccc(OC(C)=O)cc12 | inactive
CCC(C)NC(=O)C1CCCN(C(=O)Nc2ccc(F)cc2)C1 (stereo unspecified) | inactive
O=[N+]([O-])c1ccccc1S(=O)(=O)NC1CCCCCCC1 | inactive
CC(C)(C)c1nn(-c2ccccc2)c2[nH]c(=O)c(C=O)cc12 | inactive
COCCN(C(=S)Nc1ccccc1OC)C1CCN(C(C)C)CC1 | inactive
Cc1ccc(CN2CCN(Cc3nc4ccccc4nc3C)CC2CCO)cc1 (stereo unspecified) | inactive
CCOC(=O)c1nc(NCCc2ccccc2)sc1C | inactive
C/C(=C/c1ccccc1)C(=O)N1CCN(c2ccccc2)CC1 | inactive
CC1CCC(NC(=O)C2CCN(c3cnccn3)CC2)CC1 (stereo unspecified) | inactive
CC1CCN(C(=O)COC(=O)c2cccs2)CC1 | inactive
O=C(CNCc1ccccc1)Nc1ccc(F)cc1 | inactive
Cc1ccc2cc(C#N)c(N3CCCN(S(=O)(=O)c4ccccc4)CC3)nc2c1 | inactive
Cc1c(Cl)c(C(=O)N2CCCC2)nn1C | inactive
COC(=O)C(C(=O)OC)c1ccc(N)cc1 | inactive
O=C1OC(c2ccccc2)(c2ccccc2)c2ccccc21 | inactive
O=C1CSC(=Nc2ccccc2Cl)N1 | inactive

SMILES | activity change, negative = inhibition
O=C(CN1CC[n+]2c(-c3cccs3)csc21)c1ccc(-c2ccccc2)cc1 | inactive
CC(CCCC(C)(C)O)NC(=O)c1ccc(OC2CCN(C(=O)C3CC3)CC2)cc1 (stereo unspecified) | inactive
CC(=O)Nc1ccc(N/C=C/C(=O)c2ccccc2)cc1 | inactive
Fc1ccc(-n2c(-c3ccc4ccccc4n3)n[nH]c2=S)cc1Cl | inactive
CC(NS(=O)(=O)c1ccc(Cl)c(Cl)c1)C(=O)OCC(=O)Nc1ccc2c(c1)OCO2 (stereo unspecified) | inactive
CCc1nnc(NS(=O)(=O)c2ccc(NC(=O)CCC(=O)O)cc2)s1 | inactive
CC(O)CNCCCOc1cccc(Oc2ccccc2)c1 (stereo unspecified) | inactive
Cc1ccc(C(=O)Nc2ccccc2)cc1S(=O)(=O)N1CCN(C)CC1 | inactive
CCNS(=O)(=O)c1ccc(CCC(=O)N2CCCC2)cc1 | inactive
COc1ccc(OC)c(S(=O)(=O)NCCCn2ccnc2)c1 | inactive
Cc1cc(C)nc(/N=C(\N)N2CCc3ccccc32)n1 | inactive
CCc1nc(SCC(=O)c2ccccc2)c2c(=O)n(C)c(=O)n(C)c2n1 | inactive
COc1cc(C(=O)NC(C)CCc2ccccc2)cc(OC)c1OC (stereo unspecified) | inactive
CC12CCC(C(=O)N(CCCN3CCN(Cc4ccccc4)CC3)C1=O)C2(C)C (stereo unspecified) | inactive
CC(C)(C)OC(=O)N[C@@H](Cc1c[nH]c2ccccc12)c1nnc(SCC(N)=O)o1 | inactive
O=C(CSc1nccc(=O)[nH]1)Nc1ccc(Oc2ccccc2)cc1 | inactive
CC1CCCC(C)N1/N=C/c1ccc(N(C)C)cc1 (stereo unspecified) | inactive
CC(=O)Nc1ccc(Nc2ccc3nonc3c2[N+](=O)[O-])cc1 | inactive
COn1c(SCc2ccccc2)nc2ccccc2c1=O | inactive
COc1cccc(-c2cccc(NC(=O)C3CCN(Cc4ccc(CO)o4)CC3)c2)c1 | inactive
CCn1ncc(Br)c1C(=O)Nc1cccc(F)c1 | inactive
CCN(C(=O)CSc1ncccc1C(=O)O)C1CCCCC1 | inactive
